Activity calls are given as the source filed them. No cut-off for these calls is given here.

Series [1] deals with Echinococcus granulosus. Description: Inhibition of Echinococcus granulosus. In kind it is functional.
Series [2] deals with Echinococcus granulosus. Description: Antiparasitic acitivity against Echinococcus granulosus infected at 25 mg/kg. In kind it is functional.
The test system of series [3] is Echinococcus granulosus. In words: Parasiticidal activity against Echinococcus granulosus protoscolices assessed as death rate at 0.5 uM incubated for 4 days by eosin exclusion test. It is filed as functional. To be noted: time 4 day.
Series [4] relates to Echinococcus granulosus. Description: Parasiticidal activity against Echinococcus granulosus protoscolices assessed as appearance of blurred marginal structure at 5 uM incubated for 4 days by scanning electron microscopy analysis. In kind it is functional, organism-based. To be noted: time 4.0 day.
Series [5] in a line: Cmax in Wistar rat at 5 mg/kg, iv by HPLC analysis. It is filed as ADME, organism-based. Details: dose 5 mg/kg, route iv. To be noted: in vivo.
The test system of series [6] is Echinococcus granulosus. In words: Parasiticidal activity against Echinococcus granulosus cyst assessed as formation of dense aggregates at 100 uM incubated for 4 days by scanning electron microscopy. As to conditions: time 4.0 day. In kind it is functional, organism-based.
For series [7], the system named is Echinococcus granulosus. Description: Parasiticidal activity against Echinococcus granulosus protoscolices assessed as appearance of body shrank at 5 uM incubated for 4 days by scanning electron microscopy analysis. In kind it is functional, organism-based. To be noted: time 4.0 day.
For series [8], the system named is Echinococcus granulosus. Description: Parasiticidal activity against Echinococcus granulosus protoscolices […] by eosin exclusion test. As to conditions: 1152 h, time 48 day. In kind it is functional.
The subject of series [9] is Echinococcus granulosus. In words: Parasiticidal activity against Echinococcus granulosus protoscolices assessed as change in ultrastructure at 5 uM incubated for 4 days by scanning electron microscopy. It is filed as functional, organism-based. As to conditions: time 4.0 day.
The subject of series [10] is Echinococcus granulosus. In words: Parasiticidal activity against Echinococcus granulosus protoscolices assessed as lethal effect incubated for 4 days by eosin exclusion test. To be noted: dose 0.5-5 µM, time 4.0 day. In kind it is functional, organism-based.
Series [11] concerns Echinococcus granulosus. Description: Parasiticidal activity against Echinococcus granulosus protoscolices assessed as degeneration of outer skin at 5 uM incubated for 4 days by scanning electron microscopy. It is filed as functional, organism-based. To be noted: time 4.0 day.
The subject of series [12] is Echinococcus granulosus. In words: Parasiticidal activity against Echinococcus granulosus protoscolices assessed as appearance of rostellum hooks fall off at 5 uM incubated for 4 days by scanning electron microscopy analysis. It is filed as functional, organism-based. As to conditions: time 4.0 day.
Series [13] concerns Echinococcus granulosus. Description: Parasiticidal activity against Echinococcus granulosus protoscolices assessed as loss of suckers at 5 uM incubated for 4 days by scanning electron microscopy. It is filed as functional. As to conditions: time 4 day.
The test system of series [14] is Echinococcus granulosus. Description: Parasiticidal activity against Echinococcus granulosus protoscolices assessed as lethal effect at 0.5 to 5 uM by eosin exclusion test. In kind it is functional, organism-based. To be noted: dose 0.5-5 µM, TDE = time-dependent effect.
For series [15], the system named is Echinococcus granulosus. In words: Parasiticidal activity against Echinococcus granulosus protoscolices assessed as loss of hooks at 5 uM incubated for 4 days by scanning electron microscopy. In kind it is functional, organism-based. To be noted: time 4.0 day.
Series [16] relates to Echinococcus granulosus. Description: Potency index, ratio of Harmine LC50 to test compound LC50 for Parasiticidal activity against Echinococcus granulosus protoscolices. In kind it is functional.
The test system of series [17] is Echinococcus granulosus. Description: Parasiticidal activity against Echinococcus granulosus assessed as collapse of germinal layers at 100 uM incubated for 4 days by scanning electron microscopy. To be noted: time 4.0 day. In kind it is functional, organism-based.
A short description of series [18]: AUC (0 to infinity) in Wistar rat at 5 mg/kg, iv by HPLC analysis. In kind it is ADME, organism-based. Also noted: dose 5 mg/kg, route iv. To be noted: in vivo.
For series [19], the system named is Echinococcus granulosus. In words: Parasiticidal activity against Echinococcus granulosus cyst assessed as seperation from cuticle at 100 uM incubated for 4 days by scanning electron microscopy. In kind it is functional, organism-based. To be noted: time 4.0 day.
Series [20] has as its system Echinococcus granulosus. Description: Parasiticidal activity against Echinococcus granulosus protoscolices assessed as death rate at 5 uM incubated for 4 days by eosin exclusion test. In kind it is functional. To be noted: time 4 day.
Series [21] relates to Echinococcus granulosus. Description: Parasiticidal activity against Echinococcus granulosus protoscolices assessed as increase in death rate at 5 uM incubated for 4 days by darker staining-based light microscopy. In kind it is functional, organism-based. To be noted: time 4.0 day.
Series [22] can be described thus: Oral bioavailability in Wistar rat at 50 mg/kg, […] by HPLC analysis. As to conditions: in vivo. It is filed as ADME, organism-based.
Series [23] deals with Echinococcus granulosus. Description: Parasiticidal activity against Echinococcus granulosus protoscolices assessed as partial vacuolar change at 5 uM incubated for 4 days by scanning electron microscopy analysis. It is filed as functional, organism-based. As to conditions: time 4.0 day.

As to `CCCCn1c2ccccc2c2ccnc(-c3ccccc3Cl)c21`, the LC50 in the series on Echinococcus granulosus [1] stood at 41.6 µM. Further, the Activity with Echinococcus granulosus [2] is listed as 32.91%.
With `Cc1nc(NC(=O)c2ccc(CN3CCC(N4CCCCC4)CC3)cc2)cc2c1[nH]c1ccccc12`, the Activity with Echinococcus granulosus [3] was over 50%; in the series on Echinococcus granulosus [10], “Dose-Dependent Effect”; with Echinococcus granulosus [13], 59.4%; in the series on Echinococcus granulosus [14] it was “Tde”; with Echinococcus granulosus [20] it was over 90%. Further, the outcome with Echinococcus granulosus [4], with Echinococcus granulosus [6], in the series on Echinococcus granulosus [7], with Echinococcus granulosus [9], in the series with Echinococcus granulosus [11] and with Echinococcus granulosus [12] was Active. Besides, the outcome with Echinococcus granulosus [15], in the series with Echinococcus granulosus [17], in the series with Echinococcus granulosus [19], in the series on Echinococcus granulosus [21] and in the series with Echinococcus granulosus [23] was Active. Also, in series [5], the highest level (Cmax) was 1120 ng/mL. In the series with Echinococcus granulosus [8], this compound returned an LC50 of 2.39 µM. For the same compound, in the series with Echinococcus granulosus [16], the RatioLC50 is 84. This compound had an AUC(0-inf) in series [18] of 1410 ng·h/mL. In addition, in [22], the bioavailability came out at 15.5%.

The values are drawn from ChEMBL document CHEMBL5344429, “1,3-Substituted β-Carboline Derivatives as Potent Chemotherapy for the Treatment of Cystic Echinococcosis” (J Med Chem, 2023).
